Data: US7396837B2, “Antitumoral analogs of lamellarins” (Pharma Mar, S.A.U., priority 2002, dated 2008)
Like-named read-outs stand apart in the source and are kept apart here.

How the values were obtained:
Format in all cases: cell-based
DU-145 = test: SRB colorimetric cell growth inhibition assay, DU-145; conditions: for GI50: GI=growth inhibition, read-out: GI50 DU-145; for TGI DU-145: total growth inhibition (cytostatic effect)
Outline: (§1)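 Cells are kept under uninterrupted exposure to compound. Staining with sulforhodamine B then measures cell growth and viability. Triplicate data give mean ± SD, from which growth inhibition, total growth inhibition and lethal concentration values follow.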

LoVo-Dox = test: SRB colorimetric cell growth inhibition assay, LoVo-Dox (MDR); conditions: Homo sapiens; for GI50: GI=growth inhibition, read-out: GI50 LOVO-DOX; for IC (TGI): read-out: TGI LOVO-DOX
Outline: as §1

SK-BR-3 = test: SRB colorimetric cell growth inhibition assay, SK-BR-3; conditions: for CC50: cell killing (cytotoxic effect); for GI50: GI=growth inhibition, read-out: GI50 SK-BR-3
Outline: as §1

SK-MEL-28 = test: SRB colorimetric cell growth inhibition assay, SK-MEL-28; conditions: for GI50: GI=growth inhibition, read-out: GI50 MEL-28
Outline: as §1

H-MEC-1 = test: SRB colorimetric cell growth inhibition assay, H-MEC-1; conditions: Homo sapiens, HMEC-1, H-MEC-1; for GI50: GI=growth inhibition, read-out: GI50 H-MEC-1; for IC (TGI): total growth inhibition (cytostatic effect), read-out: TGI H-MEC-1
Outline: (§2)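 Sulforhodamine B colorimetric assay of cell growth and viability, mean ± SD of triplicate wells. Parameters derived: GI (growth inhibition), TGI (total growth inhibition, cytostatic) and LC (cell killing, cytotoxic).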

[1] = as above; conditions: human
Outline: as §2

PANC-1 = test: SRB colorimetric cell growth inhibition assay, PANC-1; conditions: for GI50: GI=growth inhibition, read-out: GI50 PANC-1
Outline: as §1

IGROV = test: SRB colorimetric cell growth inhibition assay, IGROV; conditions: for IC (TGI): total growth inhibition (cytostatic effect), read-out: TGI IGROV; for GI50: GI=growth inhibition, read-out: GI50 IGROV
Outline: as §1

HT-29 = test: SRB colorimetric cell growth inhibition assay, HT-29; conditions: for GI50: HT-29, GI=growth inhibition, read-out: GI50 HT-29; for CC50 / IC (TGI): Homo sapiens; for IC (TGI): read-out: TGI HT-29
Outline: as §1

LNCaP = test: SRB colorimetric cell growth inhibition assay, LNCaP; conditions: Homo sapiens, LNCaP; for GI50: GI=growth inhibition, read-out: GI50 LN-caP; for CC50: cell killing (cytotoxic effect); for IC (TGI): total growth inhibition (cytostatic effect), read-out: TGI LN-caP
Outline: as §1

IGROV-ET = test: SRB colorimetric cell growth inhibition assay, IGROV-ET (ET-743 resistant); conditions: for CC50: cell killing (cytotoxic effect); for IC (TGI): total growth inhibition (cytostatic effect), read-out: TGI IGROV-ET; for GI50: GI=growth inhibition, read-out: GI50 IGROV-ET
Outline: as §1

LoVo = test: SRB colorimetric cell growth inhibition assay, LoVo; conditions: Homo sapiens, LoVo; for GI50: GI=growth inhibition, read-out: GI50 LOVO; for IC (TGI): read-out: TGI LOVO
Outline: as §1

SKOV-3 = test: SRB colorimetric cell growth inhibition assay, SKOV-3; conditions: Homo sapiens; for GI50: SK-OV-3, SKOV-3, GI=growth inhibition, read-out: GI50 SKOV-3; for IC (TGI): total growth inhibition (cytostatic effect), read-out: TGI SKOV-3
Outline: as §2

K-562 = test: SRB colorimetric cell growth inhibition assay, K-562; conditions: Homo sapiens; for GI50: GI=growth inhibition, read-out: GI50 K-562; for IC (TGI): read-out: TGI K-562
Outline: as §1

A-549 = test: SRB colorimetric cell growth inhibition assay, A-549; conditions: for GI50: GI=growth inhibition, read-out: GI50 A-549; for IC (TGI): read-out: TGI A-549
Outline: as §1

COc1cc2ccn3c(c(-c4ccc(OC(=O)[C@@H](N)Cc5ccccc5)c(OC)c4)c4c5cc(OC)c(OC(=O)[C@@H](N)Cc6ccccc6)cc5oc(=O)c43)c2cc1OC [Compound 18]
GI50 (DU-145; DU-145): 0.505 µM | TGI DU-145 (DU-145; DU-145): 1.41E−06 Molar | CC50 (DU-145; Homo sapiens, DU-145, DU-145, cell killing (cytotoxic effect), read-out: LC50 DU-145): 7.04 µM | GI50 (LoVo-Dox; LOVO-DOX): 1.08 µM | CC50 (LoVo-Dox; LOVO-DOX, cell killing (cytotoxic effect), read-out: LC50 LOVO-DOX): 12.1 µM | IC (TGI) (LoVo-Dox; LOVO-DOX, total growth inhibition (cytostatic effect)): 3.67 µM | CC50 (SK-BR-3; Homo sapiens, SK-BR-3, SK-BR-3, read-out: LC50 SK-BR-3): 10.5 µM | GI50 (SK-BR-3; SK-BR-3): 0.458 µM | TGI SK-BR-3 (SK-BR-3; SK-BR-3, total growth inhibition (cytostatic effect)): 2.14E−06 Molar | GI50 (SK-MEL-28; MEL-28): 0.524 µM | CC50 (SK-MEL-28; MEL-28, cell killing (cytotoxic effect), read-out: LC50 MEL-28): 4.43 µM | TGI MEL-28 (SK-MEL-28; MEL-28, total growth inhibition (cytostatic effect)): 1.44E−06 Molar | GI50 (H-MEC-1): 0.494 µM | IC (TGI) (H-MEC-1): 0.846 µM | LC50 (concentration giving 50% net cell killing) ([1]; H-MEC-1, cell killing (cytotoxic effect), read-out: LC50 H-MEC-1): 2.93 µM | CC50 (PANC-1; Homo sapiens, PANC-1, PANC-1, cell killing (cytotoxic effect), read-out: LC50 PANC-1): 12.3 µM | GI50 (PANC-1; PANC-1): 0.992 µM | TGI PANC-1 (PANC-1; PANC-1, total growth inhibition (cytostatic effect)): 3.70E−06 Molar | CC50 (IGROV; Homo sapiens, IGROV, cell killing (cytotoxic effect), read-out: LC50 IGROV): 7.91 µM | IC (TGI) (IGROV; Homo sapiens, IGROV): 3.21 µM | GI50 (IGROV; IGROV): 1.31 µM | GI50 (HT-29): 0.819 µM | CC50 (HT-29; HT-29, HT-29, cell killing (cytotoxic effect), read-out: LC50 HT-29): 12.3 µM | IC (TGI) (HT-29; HT-29, HT-29, total growth inhibition (cytostatic effect)): 4.54 µM | GI50 (LNCaP; LN-caP): 0.359 µM | CC50 (LNCaP; LN-caP, read-out: LC50 LN-caP): 4.27 µM | IC (TGI) (LNCaP; LN-caP): 1.27 µM | CC50 (IGROV-ET; Homo sapiens, IGROV-ET, read-out: LC50 IGROV-ET): 12.3 µM | IC (TGI) (IGROV-ET; Homo sapiens, IGROV-ET): 5.14 µM | GI50 (IGROV-ET; IGROV-ET): 2 µM | GI50 (LoVo): 0.664 µM | CC50 (LoVo; cell killing (cytotoxic effect), read-out: LC50 LOVO): 12.3 µM | IC (TGI) (LoVo; total growth inhibition (cytostatic effect)): 2.37 µM | GI50 (SKOV-3): 1.22 µM | LC50 (concentration causing 50% net cell killing) (SKOV-3; SK-OV-3, SKOV-3, cell killing (cytotoxic effect), read-out: LC50 SKOV-3): 6.51 µM | IC (TGI) (SKOV-3; SK-OV-3, SKOV-3): 2.82 µM | GI50 (K-562; K562, K-562): 0.558 µM | CC50 (K-562; K562, K-562, cell killing (cytotoxic effect), read-out: LC50 K-562): 8.64 µM | IC (TGI) (K-562; K562, K-562, total growth inhibition (cytostatic effect)): 1.51 µM | GI50 (A-549; Homo sapiens, A549, A-549): 1.61 µM | CC50 (A-549; Homo sapiens, A549, A-549, cell killing (cytotoxic effect), read-out: LC50 A-549): 9.99 µM | IC (TGI) (A-549; Homo sapiens, A549, A-549, total growth inhibition (cytostatic effect)): 4 µM

COc1cc(-c2c3c4cc(OC)c(OC(=O)[C@@H](N)C(C)C)cc4oc(=O)c3n3ccc4c(OC(=O)[C@@H](N)C(C)C)c(OC)c(OC)cc4c23)ccc1OC(=O)[C@@H](N)C(C)C [Compound 35]
TGI DU-145 (DU-145; DU-145): 8.81E−08 Molar | GI50 (DU-145; Homo sapiens, DU-145, DU-145): 0.0321 µM | CC50 (DU-145; human): 0.576 µM | GI50 (LoVo-Dox; LOVO-DOX): 0.217 µM | IC (TGI) (LoVo-Dox; LOVO-DOX, TGI=total growth inhibition (cytostatic effect)): 0.737 µM | CC50 (LoVo-Dox; read-out: LC50 LOVO-DOX, LOVO-DOX, LC=cell killing (cytotoxic effect)): 2.8 µM | IC (TGI) (SK-BR-3; Homo sapiens, SK-BR-3, SK-BR-3, total growth inhibition (cytostatic effect), read-out: TGI SK-BR-3): 0.689 µM | CC50 (SK-BR-3; Homo sapiens, SK-BR-3, read-out: LC50 SK-BR-3, SK-BR-3): 4.03 µM | GI50 (SK-BR-3; SK-BR-3): 0.228 µM | IC (TGI) (SK-MEL-28; Homo sapiens, SK-MEL-28, MEL-28, total growth inhibition (cytostatic effect), read-out: TGI MEL-28): 0.915 µM | GI50 (SK-MEL-28; MEL-28): 0.0546 µM | CC50 (SK-MEL-28; human): 2.77 µM | GI50 (H-MEC-1): 0.0197 µM | IC (TGI) (H-MEC-1): 0.0403 µM | LC50 (concentration giving 50% net cell killing) [1]: 0.0826 µM | IC (TGI) (PANC-1; Homo sapiens, PANC-1, PANC-1, TGI=total growth inhibition (cytostatic effect), read-out: TGI PANC-1): 1.21 µM | CC50 (PANC-1; Homo sapiens, PANC-1, read-out: LC50 PANC-1, PANC-1, LC=cell killing (cytotoxic effect)): 3.67 µM | GI50 (PANC-1; PANC-1): 0.178 µM | GI50 (IGROV; Homo sapiens, IGROV): 0.152 µM | IC (TGI) (IGROV; Homo sapiens, IGROV): 0.907 µM | CC50 (IGROV; human): 4.05 µM | GI50 (HT-29): 1.18 µM | IC (TGI) (HT-29; HT-29, HT-29, TGI=total growth inhibition (cytostatic effect)): 2.44 µM | CC50 (HT-29; HT-29, read-out: LC50 HT-29, HT-29, LC=cell killing (cytotoxic effect)): 5.06 µM | GI50 (LNCaP; LN-caP): 0.0881 µM | IC (TGI) (LNCaP; LN-caP): 0.468 µM | CC50 (LNCaP; read-out: LC50 LN-caP, LN-caP): 2.22 µM | GI50 (IGROV-ET; Homo sapiens, IGROV-ET): 0.192 µM | IC (TGI) (IGROV-ET; Homo sapiens, IGROV-ET): 0.855 µM | CC50 (IGROV-ET; Homo sapiens, read-out: LC50 IGROV-ET, IGROV-ET): 5.45 µM | CC50 (LoVo; read-out: LC50 LOVO, LOVO, LC=cell killing (cytotoxic effect)): 2.6 µM | GI50 (LoVo): 0.207 µM | IC (TGI) (LoVo; TGI=total growth inhibition (cytostatic effect)): 0.705 µM | GI50 (SKOV-3): 0.113 µM | LC50 (concentration causing 50% net cell killing) (SKOV-3; SK-OV-3, read-out: LC50 SKOV-3): 3.83 µM | IC (TGI) (SKOV-3; SK-OV-3, SKOV-3): 0.932 µM | GI50 (K-562; K562, K-562): 0.0808 µM | IC (TGI) (K-562; K562, K-562, TGI=total growth inhibition (cytostatic effect)): 0.975 µM | CC50 (K-562; K562, read-out: LC50 K-562, K-562, LC=cell killing (cytotoxic effect)): 4.82 µM | GI50 (A-549; A-549): 0.0524 µM | IC (TGI) (A-549; Homo sapiens, A549, A-549, TGI=total growth inhibition (cytostatic effect)): 0.259 µM | CC50 (A-549; Homo sapiens, A549, read-out: LC50 A-549, A-549, LC=cell killing (cytotoxic effect)): 6.09 µM
